Data taken from PubChem BioAssay (NCI).
“And” between values parts separate entries of the source, which are not always exact repeats. Equal entries are not always repeated.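 48-hour exposure; five concentrations; linearly interpolated endpoints. Abbreviation: GI50, concentration required for 50% inhibition of growth. The concentration for full growth arrest is given as TGI.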

How the values were obtained:
Test in all cases: growth of human tumour cells (NCI), 48 h
[1] = test system: HCC-2998 colon
[2] = test system: UACC-62 melanoma
[3] = test system: HCT-116 colon
[4] = test system: M14 melanoma
[5] = test system: SK-MEL-28 melanoma
[6] = test system: OVCAR-3 ovarian
[7] = test system: BT-549 breast
[8] = test system: LOX IMVI melanoma
[9] = test system: UO-31 renal
[10] = test system: HT29 colon

Compound | TGI [1] [µM] | TGI [2] [µM] | TGI [3] | TGI [4] | TGI [5] | TGI [6] | TGI [7] | TGI [8] | TGI [9] | TGI [10] | GI50 [1] [µM] | GI50 [2] [µM] | GI50 [3] [µM] | GI50 [4] | GI50 [5] [µM] | GI50 [6] [µM] | GI50 [7] [µM] | GI50 [8] [µM] | GI50 [9] | GI50 [10] [µM]
O=C1CC(C(=O)O)Cc2c(Br)ccc(O)c21 (centres undefined) | > 100 | > 100 | > 100 µM | > 100 µM | > 100 µM | > 100 µM | > 100 µM | > 100 µM | > 100 µM | > 100 µM |  |  |  |  |  |  |  |  |  | 
O=C(Nc1ccc(Oc2ccc(NC(=O)Nc3ccccc3Cl)cc2)cc1)Nc1ccccc1Cl | > 51.7 | > 62 | > 100 µM | > 100 µM | > 100 µM | > 55 µM | 25 µM | > 100 µM | > 95.8 µM | > 100 µM | 8.47 | 7.42 | 1.59 | > 44.6 µM | 3.54 | 11.3 | 5.06 | 10.8 | 34.8 µM | > 21.4
Cc1ccc(/C=C(/C#N)n2nnc3ncccc32)cc1 | 12.2 | 15.8 | 11.1 µM | 17.7 µM | 31.3 µM | 3.74 µM | 19.7 µM | 11.3 µM | 12.4 µM | 11.5 µM | 3.37 | 3.2 | 2.2 | 2.89 µM | 2.17 | 0.801 | 2.46 | 3.08 | 2.01 µM | 2.08
CS(=O)(=O)c1ccc2c(c1)C(=O)c1c-2n(CCCBr)c(=O)c2cc([N+](=O)[O-])ccc12 | > 100 | > 100 | > 100 µM | > 100 µM | > 100 µM | > 100 µM | > 100 µM | > 100 µM | > 100 µM | > 100 µM | 24.8 | 4.26 | 7.44 | 7.11 µM | > 100 | 28.8 | 26.7 | 5.77 | 3.12 µM | 29.5
CCC1(OC(=O)CNC)C(=O)OCc2c1cc1n(c2=O)Cc2cc3ccccc3nc2-1 (centres undefined) | 1.57 | 0.0186 | 0.264 µM | 1.27 µM | 2.7 µM | 0.401 µM | 5.11 µM | 0.137 µM | 0.0856 µM | 2.64 µM |  |  |  |  |  |  |  |  |  | 
CC(C)(C)[Si](C)(C)OC1[C@@H](O[Si](C)(C)C(C)(C)C)[C@@H](CNC(=O)NC(=O)NC(=O)CCl)O[C@H]1n1cnc2c(NC(=O)Nc3ccccc3)ncnc21 (some centres undefined) | 18.6 | 18.6 | 7.41 µM | 11.8 µM | 17.8 µM | 4.87 µM | 13.1 µM | 0.52 µM | 1.89 µM | 3.67 µM | 8.74 | 8.41 | 1.85 | 5.34 µM | 8.78 | 1.82 | 6.57 | 0.236 | 0.959 µM | 1.43
COc1ccc(/C(=C/c2ccc3ccccc3c2)c2nn[nH]n2)cc1OC | 82.9 | > 100 | > 100 µM | > 100 µM | > 100 µM | 7.87 µM | > 100 µM | > 100 µM | > 100 µM | 21.6 µM | 5.2 | 0.867 | 2.42 | 1.9 µM | 8.07 | 1.69 | 10.9 | 5.63 | 5.59 µM | 2.69
O=C(/C=C\c1cc(Br)ccc1O)/C=C/c1cc(Br)ccc1O | 2.89 | 1.8 | 1.26 µM | 3.08 µM | 1.96 µM | 1.13 µM | 3.84 µM | 0.463 µM | 2.2 µM | 1.84 µM | 1.51 | 0.429 | 0.345 | 0.651 µM | 0.555 | 0.351 | 0.897 | 0.208 | 0.882 µM | 0.451
Cc1ccc(S(=O)(=O)OCC(=O)Nc2ccc(C(=O)O)c(O)c2)cc1 | 88.1 | 61.4 | 69 µM | 85 µM | 94.5 µM | 44.5 µM | 206 µM | 61 µM | 173 µM | 172 µM | 41 | 20.9 | 20.5 | 28.2 µM | 31.8 | 19.3 | 71.6 | 20.8 | 45.1 µM | 38.6
CCCCCCCCCCCCNC(=O)N[C@H](C(=O)N[C@H]1/C=C/CCNC(=O)/C=C/[C@H](C)NC1=O)C(C)C | 0.0562 | 0.168 | 0.163 µM | 4.6 µM | 0.708 µM | 0.935 µM | 0.0701 µM | 0.355 µM | > 100 µM | 0.331 µM | 0.0239 | 0.0447 | 0.0365 | 0.221 µM | 0.208 | 0.0566 | 0.0228 | 0.113 | 32.2 µM | 0.0216
CON=C1C[C@]2(C[C@@H]3C[C@@H](C/C=C(\C)C[C@@H](C)/C=C/C=C4\CO[C@@H]5[C@H](O)C(C)=C[C@@H](C(=O)O3)[C@]45O)O2)O[C@H](/C(C)=C/C(C)C)[C@H]1C | 26.9 | 29.6 | 19 µM | 33.1 µM | 31.7 µM | 15.8 µM | 33.4 µM | 26.5 µM | 23.3 µM | 25.3 µM | 12.1 | 14.4 | 5.44 | 16.1 µM | 17.5 | 4.45 | 18 | 13.3 | 11.2 µM | 11.1
O=C(O)c1ccc(NCc2nc3ccccc3[nH]2)cc1 | > 100 | > 100 | > 100 µM | > 100 µM | > 100 µM | > 100 µM | > 100 µM | > 100 µM | > 100 µM | > 100 µM | > 100 | > 100 | > 100 | > 100 µM | > 100 | > 100 | > 100 | > 100 | > 100 µM | > 100
C=C[C@H]1CN2CCc3c([nH]c4c([C@@H]5CCCN5C)c(O)ccc34)[C@@H]2C[C@@H]1C[C@H]1c2[nH]c3ccccc3c2CCN1C | 0.297 | 3.28 | 2.68 µM and 1.48 µM | 2.75 µM and 0.436 µM and 2.55 µM | 2.98 µM and 3.3 µM | 2.8 µM and 3.16 µM | 3.27 µM and 2.96 µM | 3.03 µM and 2.86 µM | 2.8 µM [middle of 4 runs] | 3.21 µM and 2.95 µM | 0.142 |  | 1.13 | 1.25 µM and 0.211 µM |  |  |  |  | 1.42 µM and 1.44 µM | 
